Changes are numbered by the printed parent chain. Read-outs that look alike come from different tables or passages of the source.
Legend:
Format in all cases: cell-based
[1] = molecular target: T1, F876L mutant Androgen Receptor (AR-F876L) (Homo sapiens, UniProt P10275, F877L); assay: LNCaP-AR-F876L AG reporter assay (ARE firefly luciferase, agonist mode); settings: for Emax: read-out: LNCaP-AR-F876L AG MAX % Stim
T1 construct: expressed in transfected cells; host or cells: LNCaP (LNCaP F876L)
T1 sequence (P10275 1-920 F877L): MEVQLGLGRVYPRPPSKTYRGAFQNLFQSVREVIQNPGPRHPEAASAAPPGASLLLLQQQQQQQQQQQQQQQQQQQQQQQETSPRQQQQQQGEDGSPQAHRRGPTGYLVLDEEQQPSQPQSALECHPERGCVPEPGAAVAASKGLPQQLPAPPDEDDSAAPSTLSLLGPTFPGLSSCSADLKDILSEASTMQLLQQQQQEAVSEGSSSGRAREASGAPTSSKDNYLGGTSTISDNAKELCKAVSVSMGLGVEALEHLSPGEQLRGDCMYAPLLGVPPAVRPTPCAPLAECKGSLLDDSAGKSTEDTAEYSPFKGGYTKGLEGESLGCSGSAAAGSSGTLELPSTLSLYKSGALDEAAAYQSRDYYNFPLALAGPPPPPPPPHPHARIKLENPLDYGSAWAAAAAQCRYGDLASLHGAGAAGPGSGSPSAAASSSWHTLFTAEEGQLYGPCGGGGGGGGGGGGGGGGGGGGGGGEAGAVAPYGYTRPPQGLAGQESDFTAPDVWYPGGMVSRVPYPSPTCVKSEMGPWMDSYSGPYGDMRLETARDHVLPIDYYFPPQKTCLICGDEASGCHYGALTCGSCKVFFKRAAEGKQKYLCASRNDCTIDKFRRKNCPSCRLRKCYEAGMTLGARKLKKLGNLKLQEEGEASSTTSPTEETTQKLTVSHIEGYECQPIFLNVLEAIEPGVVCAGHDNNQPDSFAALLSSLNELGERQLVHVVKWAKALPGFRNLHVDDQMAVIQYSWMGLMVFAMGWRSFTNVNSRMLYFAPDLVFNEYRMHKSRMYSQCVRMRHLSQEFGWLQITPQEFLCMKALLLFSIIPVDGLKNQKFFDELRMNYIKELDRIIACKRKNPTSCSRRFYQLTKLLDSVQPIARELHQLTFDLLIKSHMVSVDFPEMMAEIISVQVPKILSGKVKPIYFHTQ
Procedure, shortened: (§1)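 Cells: stable LNCaP pools, AR-wt or AR-F876L, in charcoal-stripped serum. Agonist challenge for antagonist mode was 400 pM (WT) and 600 pM (F876L). Luminescence was measured after 20-24 h incubation.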

[2] = molecular target: T1, F876L mutant Androgen Receptor (AR-F876L); assay: LNCaP-AR-F876L ANT reporter assay (ARE firefly luciferase, antagonist mode); settings: for Emax: read-out: LNCaP-AR-F876L ANT MAX % Inh
Procedure, shortened: as §1

[3] = molecular target: T2, wild-type Androgen Receptor (AR-wt) (Homo sapiens, UniProt P10275); assay: LNCaP-AR-wt ANT reporter assay (ARE firefly luciferase, antagonist mode); settings: for IC50: antagonist mode, 400 pM R-1881 challenge, −Log10(IC50 [Molar]), read-out: LNCaP-AR-wt ANT pIC50 (converted); for Emax: read-out: LNCaP-AR-wt ANT MAX % Inh
T2 construct: expressed in transfected cells; host or cells: LNCaP (LNCaP AR (cs))
T2 sequence (P10275 1-920): T1 sequence (P10275 1-920 F877L) with L877F
Procedure, shortened: as §1

[4] = molecular target: T2, wild-type Androgen Receptor (AR-wt); assay: LNCaP-AR-wt AG reporter assay (ARE firefly luciferase, agonist mode); settings: for Emax: read-out: LNCaP-AR-wt AG MAX % Stim
Procedure, shortened: as §1

[5] = read-out: LNCaP-AR-F876L ANT pIC50 (converted)
[6] = agonist mode, −Log10(EC50 [Molar]), read-out: LNCaP-AR-F876L AG pEC50 (converted)
[7] = maximum % stimulation (agonist response) over tested concentration range
[8] = maximum % inhibition of R1881 control response over tested concentration range
[9] = agonist mode, −Log10(EC50 [Molar]), read-out: LNCaP-AR-wt AG pEC50 (converted)

EC50 [1, 6] [nM]	Emax [1, 7] [%]	Emax [2, 8] [%]	Emax [3, 8] [%]	EC50 [4, 9] [nM]	Emax [4, 7] [%]	SMILES	EC50 [1] [nM]	Emax [1] [%]	Emax [2] [%]	IC50 [2, 5] [nM]	IC50 [3] [nM]	Emax [3] [%]	EC50 [4] [nM]	Emax [4] [%]	IC50 [2] [nM]
						N#Cc1ncc(N2C(=O)C3(CCC3)N(c3ccc(C(=O)NCCCc4ccccc4)c(F)c3)C2=S)cc1C(F)(F)F [Cpd 57, 4-[6-[6-cyano-5-(trifluoromethyl)-3-pyridyl]-5-oxo-7-thioxo-6,8-diazaspiro[3.4]octan-8-yl]-2-fluoro-N-(3-phenylpropyl)benzamide]	> 15100	0.5	95.5	479	324	99	> 15100	0	
> 15100	0.6	98.2	102	> 15100	0.1	CCCCNC(=O)c1ccc(N2C(=S)N(c3cnc(C#N)c(C(F)(F)F)c3)C(=O)C23CCC3)cc1F [Cpd 58, N-butyl-4-[6-[6-cyano-5-(trifluoromethyl)-3-pyridyl]-5-oxo-7-thioxo-6,8-diazaspiro[3.4]octan-8-yl]-2-fluoro-benzamide]				204	245				
						N#Cc1ncc(N2C(=O)C3(CCC3)N(c3ccc(C(=O)NCc4cccs4)c(F)c3)C2=S)cc1C(F)(F)F [Cpd 59, 4-[6-[6-cyano-5-(trifluoromethyl)-3-pyridyl]-5-oxo-7-thioxo-6,8-diazaspiro[3.4]octan-8-yl]-2-fluoro-N-(2-thienylmethyl)benzamide]	> 15100	0.7	100	676	1290	102	> 15100	1.5	
> 15100	0.7	100	100	> 15100	1.1	CCN1CCC(Oc2ccc(N3C(=S)N(c4cnc(C#N)c(C)c4)C(=O)C34CCC4)cc2)CC1 [Cpd 61, 5-[8-[4-[(1-ethyl-4-piperidyl)oxy]phenyl]-5-oxo-7-thioxo-6,8-diazaspiro[3.4]octan-6-yl]-3-methyl-pyridine-2-carbonitrile]				380	1260				
						Cc1cc(N2C(=O)C3(CCC3)N(c3ccc(Oc4ccncn4)cc3)C2=S)cnc1C#N [Cpd 62, 3-methyl-5-[5-oxo-8-(4-pyrimidin-4-yloxyphenyl)-7-thioxo-6,8-diazaspiro[3.4]octan-6-yl]pyridine-2-carbonitrile]	> 15100	0.4	99.7		339	98.8	> 15100	0.8	91.2
						Cc1cc(N2C(=O)C3(CCC3)N(c3ccc(C(=O)Nc4nccs4)c(F)c3)C2=S)cnc1C#N [Cpd 63, 4-[6-(6-cyano-5-methyl-3-pyridyl)-5-oxo-7-thioxo-6,8-diazaspiro[3.4]octan-8-yl]-2-fluoro-N-thiazol-2-yl-benzamide]	> 15100	0.3	83.4	219	776	68.6	> 15100	0.7	
> 15100	0.7	98.1	98.9	> 15100	1.2	CN(CCCNC(=O)c1ccc(N2C(=S)N(c3cnc(C#N)c(C(F)(F)F)c3)C(=O)C23CCC3)cc1F)C1CCCC1 [Cpd 64, 4-[6-[6-cyano-5-(trifluoromethyl)-3-pyridyl]-5-oxo-7-thioxo-6,8-diazaspiro[3.4]octan-8-yl]-N-[3-[cyclopentyl(methyl)amino]propyl]-2-fluoro-benzamide]				174	282				
> 15100	0.1	96.2	98.9	> 15100	0.6	N#Cc1ncc(N2C(=O)C3(CCC3)N(c3ccc(OCCN4CCCC4)c(F)c3)C2=S)cc1C(F)(F)F [Cpd 66, 5-[8-[3-fluoro-4-(2-pyrrolidin-1-ylethoxy)phenyl]-5-oxo-7-thioxo-6,8-diazaspiro[3.4]octan-6-yl]-3-(trifluoromethyl)pyridine-2-carbonitrile]				603	1150				
						N#Cc1ncc(N2C(=O)C3(CCC3)N(c3ccc(C(=O)NCc4cccnc4)c(F)c3)C2=S)cc1C(F)(F)F [Cpd 67, 4-[6-[6-cyano-5-(trifluoromethyl)-3-pyridyl]-5-oxo-7-thioxo-6,8-diazaspiro[3.4]octan-8-yl]-2-fluoro-N-(3-pyridylmethyl)benzamide]	> 15100	0.8	97.4	407	1260	99.2	> 15100	1.5	
						CCCNC(=O)c1ccc(N2C(=S)N(c3cnc(C#N)c(C(F)(F)F)c3)C(=O)C23CCC3)cc1F [Cpd 68, 4-[6-[6-cyano-5-(trifluoromethyl)-3-pyridyl]-5-oxo-7-thioxo-6,8-diazaspiro[3.4]octan-8-yl]-2-fluoro-N-propyl-benzamide]	> 15100	0.9	98	427	589	96.7	> 15100	0.2	
> 15100	0.7	99.1	102	> 15100	0.9	COc1ccc(N2C(=S)N(c3cnc(C#N)c(C)c3)C(=O)C23CCC3)cc1 [Cpd 69, 5-[8-(4-methoxyphenyl)-5-oxo-7-thioxo-6,8-diazaspiro[3.4]octan-6-yl]-3-methyl-pyridine-2-carbonitrile]				132	282				
						N#Cc1ncc(N2C(=O)C3(CCC3)N(c3ccccc3)C2=S)cc1C(F)(F)F [Cpd 70, 5-(5-oxo-8-phenyl-7-thioxo-6,8-diazaspiro[3.4]octan-6-yl)-3-(trifluoromethyl)pyridine-2-carbonitrile]	> 15100	0.9	99.5	513	741	99.2	> 15100	0.3	

— patent publication US20180008587A1, “THIOHYDANTOIN ANDROGEN RECEPTOR ANTAGONISTS FOR THE TREATMENT OF CANCER” (Jaressen Pharmaceutica NV, priority 2016, published 2018)
